Patent publication US4847302A, “Use of certain compounds in livestock food as growth promotants for better feed utilization and improved carcass composition” (Merck & Co., Inc., priority 1988, dated 1989)
Where two headings read alike, the source gives them in different places.

Assays:
[1] = Growth promoting activity / feed utilization in livestock (general statements); format: in vivo
Rat Adipose Tissue = assay: Stimulation of lipolysis (glycerol production) in chopped rat adipose tissue; format: cell-based; conditions: for activation at 0.01 µM / activation at 0.05 µM / activation at 0.25 µM: Rattus norvegicus, 2 h
Experimental: (§1) Fat was collected from freshly killed animals as follows: epididymal and perirenal fat from 150 to 200 g male rates; perirenal fat from 20 to 25 kg whether lambs, and perirenal and omental fat from 35 to 50 kg gilts. Immediately after collection, fat was placed in a siliconized beaker (all glassware was siliconized) containing Krebs-Ringer bicarbonate solution (KRB; pH 7.4) at 37° C. Fat was transferred to a clean beaker and finely chopped with scissors. Chopped fat was then used as such (whole adipose preparation) or treated with collagenase (isolated adipocytes).
Whole adipose tissue from the rat (0.3 ml) or isolated adipocytes from sheep or swine (1 ml) were placed in plastic scintillation vials containing FSM (1.7 or 1 ml, respectively) and test compounds, and incubated at 37° C. for 2 hours. […] Isoproterenol, at the same concentrations, was used as a positive control. After incubation, media was removed and assayed for glycerol by a fluorometric modification of the method of Wieland (1974. Glycerol UV-method. pp. 1404. In: Bergmeyer (Ed.) Methods of Enzymatic Analysis. Verlag Chemie Weinham, Academic Press, New York). […]

[2] = test system: Isolated Swine Adipocytes; assay: Stimulation of lipolysis (glycerol production) in isolated swine adipocytes; format: cell-based; conditions: for activation at 0.01 µM / activation at 0.05 µM / activation at 0.25 µM: Sus scrofa, Adipocyte, 2 h
Experimental: as §1
(§2) Chopped fat was placed in a shaker containing 70 ml cell dispersion medium (CDM; 5 mM glucose, 0.1% collagenase, 4% bovine serum albumin (BSA), in KRB) and incubated at 37° C. for 1 hour with gentle shaking. Fat was then filtered to remove clumps and washed 4 times with washing medium (WM; 2.5 mM glucose, 1% BSA, in KRB) and 1 time with final suspension medium (FSM; 2.5 mM glucose, 2% essentially fatty acid free BSA, in KRB). Isolated adipocytes were then resuspended in the required amount of FSM (1 ml/flask, 3 flasks/treatment).
(§3) Whole adipose tissue from the rat (0.3 ml) or isolated adipocytes from sheep or swine (1 ml) were placed in plastic scintillation vials containing FSM (1.7 or 1 ml, respectively) and test compounds, and incubated at 37° C. for 2 hours. […] Isoproterenol, at the same concentrations, was used as a positive control. After incubation, media was removed and assayed for glycerol by a fluorometric modification of the method of Wieland (1974. Glycerol UV-method. pp. 1404. In: Bergmeyer (Ed.) Methods of Enzymatic Analysis. Verlag Chemie Weinham, Academic Press, New York).

[3] = test system: Isolated Chicken Hepatocytes; assay: Inhibition of lipogenesis (14C acetate incorporation) in isolated chicken hepatocytes; format: cell-based; conditions: for percent change compared to control, 14C acetate incorporation in fatty acids: Test 2, 120 min
Experimental: Determination of anti-lipogenic activity in hepatocytes
Hepatocytes were isolated from chicken liver using the procedure for adipocytes and incubated for 2 hours at 37° C. in the presence of ^14 C acetate and test compounds. […] Isoproterenol, at the same concentrations, was used as a positive control. After incubation, 8 ml Doles reagent (isopropanol:hexane:H2 SO4, 40:10:1) was added and incubation vials were shaken at room temperature for 30 minutes. Vial contents were poured into 50 ml screw-cap tubes. Vials were then rinsed with 6 ml hexane which was poured into the appropriate 50 ml tube. Tubes were shaken by hand, 10 ml H2 O was added, and tubes were shaken again. After phase separation, 2 ml of the upper (hexane) phase was removed to scintillation vials. Hexane was evaporated by a gentle air flow and the remaining lipids were resuspended in 10 ml Scinti Verse II. ^14 C was counted in a Packard liquid scintillation counter. Data are reported as CPM of ^14 C acetate incorporated into total lipids.

[4] = test system: Isolated Ovine Adipocytes; assay: Stimulation of lipolysis (glycerol production) in isolated ovine adipocytes; format: cell-based, sheep; conditions: for activation at 0.01 µM / activation at 0.05 µM: Ovis aries, Adipocyte, 2 h
Experimental: as §1, §2, §3

[5] = In vivo testing in rats: growth, feed conversion and carcass composition; set-up: species or system rat (male Charles River CD); conditions: Test 1, in diet, dose equivalent to 20 ppm clenbuterol (clenbuterol: 10); for Gain: control 7.3; for Feed Intake: control 18.6; for Weight: control 191.8
Source text: Eighty intact, male Charles River CD rats, 75-90 g, were housed and maintained on rat chow and water ad libitum. After four days acclimation ten rats per group were randomized by weight to treatment and pen. Compounds to be tested were premixed and added to ground rat chow using doses equivalent to 20 ppm of clenbuterol on a molecular weight basis. It had previously been determined 10 ppm of clenbuterol was the minimum dose needed to give maximum improvements in gain and feed conversion. Therefore, the results of any compound tested should cause responses similar to clenbuterol if the compound has half or more the activity of clenbuterol.

[6] = Test 1, 0.01 μM, read-out: percent increase compared to control, glycerol production
[7] = Test 1, 0.05 μM, read-out: percent increase compared to control, glycerol production
[8] = Test 1, 0.25 μM, read-out: percent increase compared to control, glycerol production
[9] = read-out: percent increase compared to control, glycerol production, Test 1, 0.01 μM
[10] = read-out: percent increase compared to control, glycerol production, Test 1, 0.05 μM
[11] = read-out: percent increase compared to control, glycerol production, Test 1, 0.25 μM
[12] = read-out: percent increase compared to control, glycerol production, Test 2, 0.01 μM
[13] = read-out: percent increase compared to control, glycerol production, Test 2, 0.05 μM
[14] = read-out: percent increase compared to control, glycerol production, Test 2, 0.25 μM

SMILES: CC(C)(C)NCC(O)c1ccc(O)c(O)c1 (stereo not drawn) [Compound X, Colterol]
- growth promoting activity, oral ([1]; administered orally): very little activity
- growth promoting activity, parenteral ([1]; administered parenterally): substantially active

SMILES: CC(C)(Cc1ccccc1)NCC(O)c1ccc(O)c(NS(C)(=O)=O)c1 (stereo not drawn) [I, Zinterol]
- activation at 0.01 µM (Rat Adipose Tissue; [6]): 90%
- activation at 0.05 µM (Rat Adipose Tissue; [7]): 129%
- activation at 0.25 µM (Rat Adipose Tissue; [8]): 281%
- activation at 0.01 µM [2, 6]: 87%
- activation at 0.05 µM [2, 7]: 100%
- activation at 0.25 µM [2, 8]: 53%
- activity in all species under consideration [1]: high activity in all species under consideration
- inhibition at 0.01 µM ([3]; Gallus gallus, Hepatocyte, 2 h, Test 1, 0.01 μM, read-out: percent change compared to control, 14C acetate incorporation in fatty acids): 45.2%
- inhibition at 0.05 µM ([3]; Gallus gallus, Hepatocyte, 2 h, Test 1, 0.05 μM, read-out: percent change compared to control, 14C acetate incorporation in fatty acids): 61.3%
- inhibition at 0.25 µM ([3]; Gallus gallus, Hepatocyte, 2 h, Test 1, 0.25 μM, read-out: percent change compared to control, 14C acetate incorporation in fatty acids): 66%
- antilipogenic activity relative to clenbuterol ([3]; chicken hepatocytes): greater than 125 times
- antilipogenic activity relative to isoproterenol ([3]; chicken hepatocytes): five times
- activation at 0.01 µM [4, 6]: 730%
- activation at 0.05 µM [4, 7]: 960%
- Gain [5]: 7.8 g/day
- Feed Intake [5]: 19.2 g/day
- Weight [5]: 199.1 g
- Carcass Composition % of Change over Control, Fat [5]: -10.4%
- Carcass Composition % of Change over Control, Protein [5]: 7.3%

SMILES: COc1ccc(CC(C)NCC(O)c2ccc(O)c(NC=O)c2)cc1 (stereo not drawn) [IX, Formoterol]
- activation at 0.01 µM (Rat Adipose Tissue; [9]): 42%
- activation at 0.05 µM (Rat Adipose Tissue; [10]): 91%
- activation at 0.25 µM (Rat Adipose Tissue; [11]): 258%
- activation at 0.01 µM (Rat Adipose Tissue; [12]): 16%
- activation at 0.05 µM (Rat Adipose Tissue; [13]): 70%
- activation at 0.25 µM (Rat Adipose Tissue; [14]): 145%
- activation at 0.01 µM [2, 9]: 207%
- activation at 0.05 µM [2, 10]: 267%
- activation at 0.25 µM [2, 11]: 187%
- activation at 0.01 µM [2, 12]: 340%
- activation at 0.05 µM [2, 13]: 600%
- activation at 0.25 µM [2, 14]: 844%
- activity in all species under consideration [1]: high activity in all species under consideration
- activation at 0.01 µM [4, 9]: 675%
- activation at 0.05 µM [4, 10]: 695%
- Gain [5]: 7.9 g/day
- Feed Intake [5]: 19.1 g/day
- Weight [5]: 199.4 g
- Carcass Composition % of Change over Control, Fat [5]: -10.4%
- Carcass Composition % of Change over Control, Protein [5]: 10.6%

SMILES: CC(C)N[C@H]1CCc2c(ccc(O)c2CO)[C@@H]1O.Cl [VIII]
- percent increase compared to control, glycerol production (Rat Adipose Tissue; Test 1, 0.01 μM): 19%
- percent increase compared to control, glycerol production (Rat Adipose Tissue; Test 1, 0.05 μM): 26%
- percent increase compared to control, glycerol production (Rat Adipose Tissue; Test 1, 0.25 μM): 21%
- percent increase compared to control, glycerol production (Rat Adipose Tissue; Test 2, 0.01 μM): -7%
- percent increase compared to control, glycerol production (Rat Adipose Tissue; Test 2, 0.05 μM): 4%
- percent increase compared to control, glycerol production (Rat Adipose Tissue; Test 2, 0.25 μM): 7%
- percent increase compared to control, glycerol production ([2]; Test 1, 0.01 μM): 13%
- percent increase compared to control, glycerol production ([2]; Test 1, 0.05 μM): 147%
- percent increase compared to control, glycerol production ([2]; Test 1, 0.25 μM): 180%
- percent increase compared to control, glycerol production ([2]; Test 2, 0.01 μM): 61%
- percent increase compared to control, glycerol production ([2]; Test 2, 0.05 μM): 59%
- percent increase compared to control, glycerol production ([2]; Test 2, 0.25 μM): 460%
- percent change compared to control, 14C acetate incorporation in fatty acids ([3]; 0.01 μM): 26%
- percent change compared to control, 14C acetate incorporation in fatty acids ([3]; 0.05 μM): -9%
- percent change compared to control, 14C acetate incorporation in fatty acids ([3]; 0.25 μM): -34%
- percent increase compared to control, glycerol production ([4]; Test 1, 0.01 μM): 135%
- percent increase compared to control, glycerol production ([4]; Test 1, 0.05 μM): 445%
- percent increase compared to control, glycerol production ([4]; Test 1, 0.25 μM): 565%
- percent increase compared to control, glycerol production ([4]; Test 2, 0.01 μM): 71%
- percent increase compared to control, glycerol production ([4]; Test 2, 0.05 μM): 1143%
- percent increase compared to control, glycerol production ([4]; Test 2, 0.25 μM): 1800%
- Feed Conversion ([5]; control 2.55): 2.41
- Gain [5]: 8.1 g/day
- Feed Intake [5]: 19.5 g/day
- Weight [5]: 202.6 g
- Carcass Composition % of Change over Control, Fat [5]: -6.1%
- Carcass Composition % of Change over Control, Protein [5]: 6.4%

SMILES: C[C@H](CCc1ccccc1)NC[C@H](O)c1ccc(N)nc1 [α-R,1R compound]
- activity compared with the other optical isomers of compound IV ([1]; in vivo): significantly more active than the most active of the other isomers
